Emax and EC50 data for 23 molecules are collected here from patent publication US20250340551A1, “SMALL MOLECULE MODULATORS OF STAT6” (Gilead Sciences, Inc., priority 2024, published 2025).

The first experiment deals with Eotaxin-3 (CCL26) release in human whole blood stimulated with IL-4. Briefly: Human whole blood eotaxin-3 assay (IL-4 stimulated, Eotaxin-3 release). To be noted: Homo sapiens, 48 h. The class given is cell-based. The protocol:
This was a human whole blood assay using recombinant human Interleukin 4 to stimulate the blood and measuring the ability of the test compounds to inhibit eotaxin-3 release. The biological activities of the test compounds have been tested in human whole blood stimulated with IL-4 measuring Eotaxin-3 release. The test compounds were added to 384 well clear flat-bottom plate in a 4-fold serial dilution in triplicates using a liquid handler. Human whole blood stabilized in lithium-heparin tubes was added in a volume of 65 μL per well, resulting in a final DMSO concentration of 0.5%. The plate is incubated for 2 h at 37° C. under 5% CO2/95% air. Subsequently, 5 μL of recombinant human IL-4 (R&D Systems, cat #204-ILB) was added to the wells to a final concentration of 400 pM. The plate was incubated for 48 h at 37° C. under 5% CO2/95% air. The plate was spun down for 10 minutes at 500×g and 20 μL supernatant was harvested and transferred to a 384 well v-bottom plate using a liquid handler and stored at −20° C. until further analysis. 10 μL supernatant was used to measure the level of Eotaxin-3 (CCL26) using Human Eotaxin-3 MSD kit from Mesocsale (Cat #K251UEK-4). The assay was performed according to the manufacture instructions.
The data from the human whole blood eotaxin-3 assay is shown below for Examples 1u2, 1x1, 1af26, and 1af36 (where the effect in % is plotted against the test concentration in M on a log-scale).
A word on the Emax: it is the size of the effect at its maximum, as opposed to the concentration needed. The molecule `CN(C)C(=O)c1ccc(C2CCN(Cc3cc4c(-c5ccc(N)nn5)ccnc4n3C)CC2)cc1` [Example 1z22, 4-(1-((4-(6-aminopyridazin-3-yl)-1-methyl-1H-pyrrolo[2,3-b]pyridin-2-yl)methyl)piperidin-4-yl)-N,N-dimethylbenzamide] returned an Emax below 20%.

In turn, `CN(C)C(=O)c1ccc(C2=CCN(Cc3cc4c(-c5ccc(N)nc5)ccnc4n3C)CC2)nn1` [Example 1z3, 6-(1-((4-(6-aminopyridin-3-yl)-1-methyl-1H-pyrrolo[2,3-b]pyridin-2-yl)methyl)-1,2,3,6-tetrahydropyridin-4-yl)-N,N-dimethylpyridazine-3-carboxamide] yielded an Emax below 20%.

`CN(C)C(=O)c1ccc(C2=CCN(Cc3cc4c(-c5ccc(N)nc5)ccnc4n3C)CC2)cc1F` [Example 1z7, 4-(1-((4-(6-aminopyridin-3-yl)-1-methyl-1H-pyrrolo[2,3-b]pyridin-2-yl)methyl)-1,2,3,6-tetrahydropyridin-4-yl)-2-fluoro-N,N-dimethylbenzamide] came in with an Emax of 20 to 30%.

Still in this experiment, the particulars now being: Homo sapiens, Hec50, 48 h.
As a reminder, the EC50 is the concentration needed to bring the measured effect to its halfway point. Lower therefore signals a more potent agent. In turn, `[2H]C([2H])([2H])N(C(=O)c1ccc(C2=CCN([C@@H](C)c3cc4c(-c5ccc(N)c(F)n5)ccnc4n3C)CC2)cc1)C([2H])([2H])[2H]` [Example 1af54, (S)-4-(1-(1-(4-(5-Amino-6-fluoropyridin-2-yl)-1-methyl-1H-pyrrolo[2,3-b]pyridin-2-yl)ethyl)-1,2,3,6-tetrahydropyridin-4-yl)-N,N-bis(methyl-d3)benzamide] displayed an EC50 of 534 nM.

Molecule `[2H]C([2H])([2H])N(C(=O)c1ccc(C2CCN([C@@H](C)c3cc4c(-c5ccc(NCCO)nc5)ccnc4n3C)CC2)cc1)C([2H])([2H])[2H]` [Example 1af69, (S)-4-(1-(1-(4-(6-((2-hydroxyethyl)amino)pyridin-3-yl)-1-methyl-1H-pyrrolo[2,3-b]pyridin-2-yl)ethyl)piperidin-4-yl)-N,N-bis(methyl-d3)benzamide] displayed an EC50 of 262 nM.

Take `CN(C)C(=O)c1cc(F)c(C2=CCN(Cc3cc4c(-c5ccc(N)nn5)ccnc4n3C)CC2)c(Cl)c1` [Example 1af75, 4-(1-((4-(6-Aminopyridazin-3-yl)-1-methyl-1H-pyrrolo[2,3-b]pyridin-2-yl)methyl)-1,2,3,6-tetrahydropyridin-4-yl)-3-chloro-5-fluoro-N,N-dimethylbenzamide]: the EC50 amounted to 159 nM.

Turning to `Cc1cc(C(=O)N(C)C)cc(C)c1C1=CCN(Cc2cc3c(-c4ccc(N)nn4)ccnc3n2C)CC1` [Example 1z12, 4-(1-((4-(6-aminopyridazin-3-yl)-1-methyl-1H-pyrrolo[2,3-b]pyridin-2-yl)methyl)-1,2,3,6-tetrahydropyridin-4-yl)-N,N,3,5-tetramethylbenzamide], a half-maximal effect (EC50) was put at 57 nM.

Take `CNc1ccc(-c2ccnc3c2cc([C@@H](C)N2CC=C(c4c(C)cc(C(=O)N(C)C)cc4F)CC2)n3C)cn1` [Example 1z38, (R)-3-fluoro-N,N,5-trimethyl-4-(1-(1-(1-methyl-4-(6-(methyl-amino)pyridin-3-yl)-1H-pyrrolo[2,3-b]pyridin-2-yl)ethyl)-1,2,3,6-tetrahydropyridin-4-yl)benzamide]: the EC50 turned out to be 12.9 nM.

`[2H]C([2H])([2H])N(C(=O)c1cc(C)c(C2=CCN([C@@H](C)c3cc4c(-c5ccc(N)nn5)ccnc4n3C)CC2)c(F)c1)C([2H])([2H])[2H]` [Example 1af81, (S)-4-(1-(1-(4-(6-aminopyridazin-3-yl)-1-methyl-1H-pyrrolo[2,3-b]pyridin-2-yl)ethyl)-1,2,3,6-tetrahydropyridin-4-yl)-3-fluoro-5-methyl-N,N-bis(methyl-d3)benzamide] registered an EC50 of 12.6 nM.

With `CNc1ccc(-c2ccnc3c2cc(CN2CC=C(c4c(F)cc(C(=O)N(C)C)cc4Cl)CC2)n3C)nn1` [Example 1p20, 3-Chloro-5-fluoro-N,N-dimethyl-4-[1-[[1-methyl-4-[6-(methylamino)pyridazin-3-yl]pyrrolo[2,3-b]pyridin-2-yl]methyl]-3,6-dihydro-2H-pyridin-4-yl]benzamide], it took 214 nM to reach a half-maximal effect (EC50). This EC50 is about 17-fold higher than that of the molecule before.

With `CNc1ccc(-c2ccnc3c2cc(C(C)N2CC=C(c4c(C)cc(C(=O)N(C)C)cc4F)CC2)n3C)cn1` (centres unmarked) [Example 1z36, 3-fluoro-N,N,5-trimethyl-4-(1-(1-(1-methyl-4-(6-(methylamino)pyridin-3-yl)-1H-pyrrolo[2,3-b]pyridin-2-yl)ethyl)-1,2,3,6-tetrahydropyridin-4-yl)benzamide], the EC50 came to 38.6 nM. Against the preceding molecule, the EC50 is about 5.5-fold lower.

Turning to `CN(C)C(=O)c1ccc(C2=CCN(Cc3cc4c(-c5ccc(N)nn5)ccnc4n3C)CC2)c(Cl)c1` [Example 1af77, 4-(1-((4-(6-Aminopyridazin-3-yl)-1-methyl-1H-pyrrolo[2,3-b]pyridin-2-yl)methyl)-1,2,3,6-tetrahydropyridin-4-yl)-3-chloro-N,N-dimethylbenzamide], the half-maximal effective concentration (EC50) stood at 871 nM.

On to `CN(C)C(=O)c1cc(F)c(C2=CCN(Cc3cc4c(-c5ccc(N)cn5)ccnc4n3C)CC2)c(F)c1` [Example 1z17, 4-(1-((4-(5-aminopyridin-2-yl)-1-methyl-1H-pyrrolo[2,3-b]pyridin-2-yl)methyl)-1,2,3,6-tetrahydropyridin-4-yl)-3,5-difluoro-N,N-dimethylbenzamide], for which a half-maximal effect (EC50) was put at 368 nM.

In turn, `[2H]C([2H])([2H])N(C(=O)c1ccc(C2=CCN([C@@H](C)c3cc4c(-c5ncc(N)cc5F)ccnc4n3C)CC2)cc1)C([2H])([2H])[2H]` [Example 1af51, (S)-4-(1-(1-(4-(5-Amino-3-fluoropyridin-2-yl)-1-methyl-1H-pyrrolo[2,3-b]pyridin-2-yl)ethyl)-1,2,3,6-tetrahydropyridin-4-yl)-N,N-bis(methyl-d3)benzamide] displayed an EC50 of 1670 nM.

Turning to `[2H]C([2H])([2H])N(C(=O)c1ccc(C2CCN([C@@H](C)c3cc4c(-c5ccc(NCCOC)nc5)ccnc4n3C)CC2)cc1)C([2H])([2H])[2H]` [Example 1af50, (S)-4-(1-(1-(4-(6-((2-methoxyethyl)amino)pyridin-3-yl)-1-methyl-1H-pyrrolo[2,3-b]pyridin-2-yl)ethyl)piperidin-4-yl)-N,N-bis(methyl-d3)benzamide], a half-maximal effect (EC50) was put at 466 nM.

`Cc1cc(C(=O)N(C)C)cc(F)c1C1=CCN([C@@H](C)c2cc3c(-c4ccc(N)nn4)ccnc3n2C)CC1` [Example 1af80, (S)-4-(1-(1-(4-(6-aminopyridazin-3-yl)-1-methyl-1H-pyrrolo[2,3-b]pyridin-2-yl)ethyl)-1,2,3,6-tetrahydropyridin-4-yl)-3-fluoro-N,N,5-trimethylbenzamide] yielded an EC50 of 11.4 nM.

As to `[2H]C([2H])([2H])N(C(=O)c1ccc(C2=CCN([C@@H](C)c3cc4c(-c5ccc(N)nn5)ccnc4n3C)CC2)cc1)C([2H])([2H])[2H]` [Example 1af59, (S)-4-(1-(1-(4-(6-aminopyridazin-3-yl)-1-methyl-1H-pyrrolo[2,3-b]pyridin-2-yl)ethyl)-1,2,3,6-tetrahydropyridin-4-yl)-N,N-bis(methyl-d3)benzamide], the midpoint of the response, the EC50, lay at 260 nM. Against the preceding molecule, the EC50 is about 23-fold higher.

`[2H]C([2H])([2H])N(C(=O)c1ccc(C2=CCN([C@@H](C)c3cc4c(-c5cnc(N)c(C)c5)ccnc4n3C)CC2)cc1)C([2H])([2H])[2H]` [Example 1af58, (S)-4-(1-(1-(4-(6-Amino-5-methylpyridin-3-yl)-1-methyl-1H-pyrrolo[2,3-b]pyridin-2-yl)ethyl)-1,2,3,6-tetrahydropyridin-4-yl)-N,N-bis(methyl-d3)benzamide] came in with an EC50 of 638 nM.

With `[2H]C([2H])([2H])N(C(=O)c1ccc(C2CCN([C@@H](C)c3cc4c(-c5ncc(N)cc5OC)ccnc4n3C)CC2)cc1)C([2H])([2H])[2H]` [Example 1af68, (S)-4-(1-(1-(4-(5-amino-3-methoxypyridin-2-yl)-1-methyl-1H-pyrrolo[2,3-b]pyridin-2-yl)ethyl)piperidin-4-yl)-N,N-bis(methyl-d3)benzamide], a half-maximal effect (EC50) was put at 1090 nM.

As for `CN(C)C(=O)c1ccc(C2=CCN(Cc3cc4c(-c5ccc(N)nn5)ccnc4n3C)CC2)nc1` [Example 1af78, 1′-((4-(6-Aminopyridazin-3-yl)-1-methyl-1H-pyrrolo[2,3-b]pyridin-2-yl)methyl)-N,N-dimethyl-1′,2′,3′,6′-tetrahydro-[2,4′-bipyridine]-5-carboxamide], the EC50 was found to be 851 nM.

Take `Cc1cc(C(=O)N(C)C)cc(F)c1C1=CCN(C(C)c2cc3c(-c4ccc(N)nc4)ccnc3n2C)CC1` (centres unmarked) [Example 1z28, 4-(1-(1-(4-(6-aminopyridin-3-yl)-1-methyl-1H-pyrrolo[2,3-b]pyridin-2-yl)ethyl)-1,2,3,6-tetrahydropyridin-4-yl)-3-fluoro-N,N,5-trimethylbenzamide]: the response was half-maximal at 21.6 nM (EC50). This EC50 is about 39-fold lower than that of the molecule before.

The molecule `CNc1ccc(-c2ccnc3c2cc(C(C)N2CC=C(c4c(C)cc(C(=O)N(C)C)cc4F)CC2)n3C)nc1` (centres unmarked) [Example 1z39, 3-fluoro-N,N,5-trimethyl-4-(1-(1-(1-methyl-4-(5-(methylamino)pyridin-2-yl)-1H-pyrrolo[2,3-b]pyridin-2-yl)ethyl)-1,2,3,6-tetrahydropyridin-4-yl)benzamide] returned an EC50 of 301 nM.

On to `CN(C)C(=O)c1cc(F)c(C2=CCN(Cc3cc4c(-c5ccc(N)nc5)ccnc4n3C)CC2)c(C2CC2)c1` [Example 1z35, 4-(1-((4-(6-aminopyridin-3-yl)-1-methyl-1H-pyrrolo[2,3-b]pyridin-2-yl)methyl)-1,2,3,6-tetrahydropyridin-4-yl)-3-cyclopropyl-5-fluoro-N,N-dimethylbenzamide], for which the midpoint of the response, the EC50, lay at 81.8 nM. Against the preceding molecule, the EC50 is about 3.7-fold lower.
